This note sets out measurements from patent publication US20200231638A1, “STABILIZED ANTI-MICROBIAL PEPTIDES” (priority 2015, published 2020).

The test system of one data set is S. aureus. It counts as cell-based, Staphylococcus aureus. Put shortly:
(§1)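 Read-out is visible growth: the MIC is the lowest peptide concentration showing none after 20-24 hours at 37° C. Bacteria in refined (anion-exchanged) Mueller-Hinton broth were seeded at a final 5×10^5 CFU/ml onto water-based peptide serial dilutions.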

A further data set relates to P. aeruginosa. It counts as cell-based, Pseudomonas aeruginosa. In a few lines: as §1
Another data set deals with human red blood cells. It counts as cell-based. Particulars: red cells of human, 1 h, 25. In a few lines:
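Hemolysis expressed as absorbance of released hemoglobin (570 nm) normalized between untreated and 1% Triton-X100 controls, with MHC taken as peptide concentration giving under 1% release. Peptide dilutions were exposed for 1 h at 37° C to a 1% (v/v) suspension of washed human red cells in PBS.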

The next data set concerns B. cereus. It counts as cell-based, Bacillus cereus. Put shortly:
as §1

Another data set relates to E. coli. It counts as cell-based, Escherichia coli. Put shortly: as §1

Bridge positions count the residues as written; N and C are the ends. Square brackets hold non-standard residues; d marks the D form. Peptide text beside a SMILES is read from it. S5 = C=CCCC[C@](C)(N)C(=O)O; Nle = CCCC[C@H](N)C(=O)O Some results are limits rather than exact numbers.

Regarding `CCCC[C@H](NC(=O)[C@@H](NC(=O)[C@H](CCC(=O)O)NC(=O)[C@]1(C)CCCC=CCCC[C@](C)(NC(=O)CNC(=O)[C@H](Cc2ccccc2)NC(=O)[C@H](CCCCN)NC(=O)[C@H](CCCCN)NC(=O)[C@H](C)NC(=O)[C@H](CO)NC(=O)[C@H](Cc2c[nH]cn2)NC(=O)[C@H](CC(C)C)NC(=O)[C@H](Cc2ccccc2)NC(=O)[C@H](CCCCN)NC(=O)CNC(=O)[C@@H](NC(=O)CN)[C@@H](C)CC)C(=O)N[C@@H](C)C(=O)N[C@@H](Cc2ccccc2)C(=O)N[C@@H](C(C)C)C(=O)N1)[C@@H](C)CC)C(=O)N[C@@H](CC(N)=O)C(=O)N[C@@H](CO)C(N)=O` [Mag(i + 4)13] (H-GIGKFLHSAKKFG[S5]AFV[S5]EI[Nle]NS-NH2; staple 14-18), in the data set with S. aureus, the “MIC S. aureus” value was 6.2 µg/mL. The “MIC P. aeruginosa” value in the data set on P. aeruginosa was 6.2 µg/mL. Besides, the “% Hemolysis at 25 μg/ml” value in the data set with human red blood cells came out at 59.7%. In addition, the “MIC B. cereus” value in the data set with B. cereus was determined as 3.1 µg/mL. In addition, the “MIC E. coli” value against E. coli worked out at 3.1 µg/mL.
Turning to `CCCC[C@H](NC(=O)[C@@H](NC(=O)[C@]1(C)CCCC=CCCC[C@](C)(NC(=O)[C@H](CCCCN)NC(=O)CNC(=O)[C@H](Cc2ccccc2)NC(=O)[C@H](CCCCN)NC(=O)[C@H](CCCCN)NC(=O)[C@H](C)NC(=O)[C@H](CO)NC(=O)[C@H](Cc2c[nH]cn2)NC(=O)[C@H](CC(C)C)NC(=O)[C@H](Cc2ccccc2)NC(=O)[C@H](CCCCN)NC(=O)CNC(=O)[C@@H](NC(=O)CN)[C@@H](C)CC)C(=O)N[C@@H](Cc2ccccc2)C(=O)N[C@@H](C(C)C)C(=O)NCC(=O)N1)[C@@H](C)CC)C(=O)N[C@@H](CC(N)=O)C(=O)N[C@@H](CO)C(N)=O` [Mag(i + 4)14] (H-GIGKFLHSAKKFGK[S5]FVG[S5]I[Nle]NS-NH2; staple 15-19), the “MIC S. aureus” value with S. aureus was found to be 3.1 µg/mL. For the same molecule, the “MIC P. aeruginosa” value against P. aeruginosa amounted to 3.1 µg/mL. Moreover, the “% Hemolysis at 25 μg/ml” value in the data set on human red blood cells was found to be 92.1%. Further, the “MIC B. cereus” value against B. cereus amounted to 3.1 µg/mL. For the same molecule, the “MIC E. coli” value against E. coli worked out at 1.6 µg/mL.
As for `CCCC[C@H](NC(=O)[C@]1(C)CCCC=CCCC[C@](C)(NC(=O)[C@H](C)NC(=O)[C@H](CCCCN)NC(=O)CNC(=O)[C@H](Cc2ccccc2)NC(=O)[C@H](CCCCN)NC(=O)[C@H](CCCCN)NC(=O)[C@H](CCC(=O)O)NC(=O)[C@H](CO)NC(=O)[C@H](Cc2c[nH]cn2)NC(=O)[C@H](CC(C)C)NC(=O)[C@H](Cc2ccccc2)NC(=O)[C@H](CCCCN)NC(=O)CNC(=O)[C@@H](NC(=O)CN)[C@@H](C)CC)C(=O)N[C@@H](C(C)C)C(=O)NCC(=O)N[C@@H](CCC(=O)O)C(=O)N1)C(=O)N[C@@H](CC(N)=O)C(=O)N[C@@H](CO)C(N)=O` [Mag(i + 4)15(A9E), GIGKFLHSEKKFGKAXVGEXBNS] (H-GIGKFLHSEKKFGKA[S5]VGE[S5][Nle]NS-NH2; staple 16-20), the “MIC S. aureus” value in the data set with S. aureus was over 50 µg/mL. In the data set with P. aeruginosa, the “MIC P. aeruginosa” value is over 50 µg/mL. Also, in the data set with human red blood cells, the “% Hemolysis at 25 μg/ml” value was determined as 0.6%. Further, the “MIC B. cereus” value in the data set on B. cereus is over 50 µg/mL. In addition, the “MIC E. coli” value with E. coli stood at 50 µg/mL.
For the molecule `CCCC[C@H](NC(=O)[C@]1(C)CCCC=CCCC[C@](C)(NC(=O)[C@H](C)NC(=O)[C@H](CCCCN)NC(=O)CNC(=O)[C@H](Cc2ccccc2)NC(=O)[C@H](CCCCN)NC(=O)[C@H](CCCCN)NC(=O)[C@H](CCCCN)NC(=O)[C@H](CO)NC(=O)[C@H](Cc2c[nH]cn2)NC(=O)[C@H](CC(C)C)NC(=O)[C@H](Cc2ccccc2)NC(=O)[C@H](CCCCN)NC(=O)CNC(=O)[C@@H](NC(=O)CN)[C@@H](C)CC)C(=O)N[C@@H](C(C)C)C(=O)NCC(=O)N[C@@H](CCC(=O)O)C(=O)N1)C(=O)N[C@@H](CC(N)=O)C(=O)N[C@@H](CO)C(N)=O` [Mag(i + 4)15(A9K), GIGKFLHSKKKFGKAXVGEXBNS] (H-GIGKFLHSKKKFGKA[S5]VGE[S5][Nle]NS-NH2; staple 16-20), the “MIC S. aureus” value in the data set on S. aureus was over 50 µg/mL. Moreover, the “MIC P. aeruginosa” value in the data set with P. aeruginosa was determined as 12.5 µg/mL. Besides, the “% Hemolysis at 25 μg/ml” value with human red blood cells turned out to be 1.9%. Besides, in the data set on B. cereus, the “MIC B. cereus” value was over 50 µg/mL. In addition, in the data set on E. coli, the “MIC E. coli” value came to 3.1 µg/mL.
For the molecule `CCCC[C@H](NC(=O)[C@]1(C)CCCC=CCCC[C@](C)(NC(=O)[C@H](CCC(=O)O)NC(=O)[C@H](CCCCN)NC(=O)CNC(=O)[C@H](Cc2ccccc2)NC(=O)[C@H](CCCCN)NC(=O)[C@H](CCCCN)NC(=O)[C@H](C)NC(=O)[C@H](CO)NC(=O)[C@H](Cc2c[nH]cn2)NC(=O)[C@H](CC(C)C)NC(=O)[C@H](Cc2ccccc2)NC(=O)[C@H](CCCCN)NC(=O)CNC(=O)[C@@H](NC(=O)CN)[C@@H](C)CC)C(=O)N[C@@H](C(C)C)C(=O)NCC(=O)N[C@@H](CCC(=O)O)C(=O)N1)C(=O)N[C@@H](CC(N)=O)C(=O)N[C@@H](CO)C(N)=O` [Mag(i + 4)15(A15E), GIGKFLHSAKKFGKEXVGEXBNS] (H-GIGKFLHSAKKFGKE[S5]VGE[S5][Nle]NS-NH2; staple 16-20), the “MIC S. aureus” value with S. aureus was 50 µg/mL. For the same molecule, in the data set on P. aeruginosa, the “MIC P. aeruginosa” value was 25 µg/mL. Also, the “% Hemolysis at 25 μg/ml” value in the data set on human red blood cells is listed as 3.8%. For the same molecule, the “MIC B. cereus” value in the data set with B. cereus is 25 µg/mL. For the same molecule, in the data set on E. coli, the “MIC E. coli” value was 3.1 µg/mL.
Turning to `CCCC[C@H](NC(=O)[C@]1(C)CCCC=CCCC[C@](C)(NC(=O)[C@H](Cc2c[nH]cn2)NC(=O)[C@H](CCCCN)NC(=O)CNC(=O)[C@H](Cc2ccccc2)NC(=O)[C@H](CCCCN)NC(=O)[C@H](CCCCN)NC(=O)[C@H](C)NC(=O)[C@H](CO)NC(=O)[C@H](Cc2c[nH]cn2)NC(=O)[C@H](CC(C)C)NC(=O)[C@H](Cc2ccccc2)NC(=O)[C@H](CCCCN)NC(=O)CNC(=O)[C@@H](NC(=O)CN)[C@@H](C)CC)C(=O)N[C@@H](C(C)C)C(=O)NCC(=O)N[C@@H](CCC(=O)O)C(=O)N1)C(=O)N[C@@H](CC(N)=O)C(=O)N[C@@H](CO)C(N)=O` [Mag(i + 4)15(A15H), GIGKFLHSAKKFGKHXVGEXBNS] (H-GIGKFLHSAKKFGKH[S5]VGE[S5][Nle]NS-NH2; staple 16-20), the “MIC S. aureus” value against S. aureus is 12.5 µg/mL. Also, the “MIC P. aeruginosa” value against P. aeruginosa was determined as 12.5 µg/mL. For the same molecule, the “% Hemolysis at 25 μg/ml” value with human red blood cells is recorded as 4.7%. The “MIC B. cereus” value in the data set with B. cereus is 6.2 µg/mL. For the same molecule, the “MIC E. coli” value against E. coli was 3.1 µg/mL.
Consider `CCCC[C@H](NC(=O)[C@]1(C)CCCC=CCCC[C@](C)(NC(=O)[C@H](CCCCN)NC(=O)[C@H](CCCCN)NC(=O)CNC(=O)[C@H](Cc2ccccc2)NC(=O)[C@H](CCCCN)NC(=O)[C@H](CCCCN)NC(=O)[C@H](C)NC(=O)[C@H](CO)NC(=O)[C@H](Cc2c[nH]cn2)NC(=O)[C@H](CC(C)C)NC(=O)[C@H](Cc2ccccc2)NC(=O)[C@H](CCCCN)NC(=O)CNC(=O)[C@@H](NC(=O)CN)[C@@H](C)CC)C(=O)N[C@@H](C(C)C)C(=O)NCC(=O)N[C@@H](CCC(=O)O)C(=O)N1)C(=O)N[C@@H](CC(N)=O)C(=O)N[C@@H](CO)C(N)=O` [Mag(i + 4)15(A15K), GIGKFLHSAKKFGKKXVGEXBNS] (H-GIGKFLHSAKKFGKK[S5]VGE[S5][Nle]NS-NH2; staple 16-20), for which the “MIC S. aureus” value against S. aureus is 25 µg/mL. In the data set with P. aeruginosa, the “MIC P. aeruginosa” value was found to be 3.1 µg/mL. For the same molecule, the “% Hemolysis at 25 μg/ml” value with human red blood cells was 4.1%. For the same molecule, the “MIC B. cereus” value against B. cereus came out at 6.2 µg/mL. For the same molecule, in the data set with E. coli, the “MIC E. coli” value is 3.1 µg/mL.
